Source: patent US10538555B2, “Macrocyclic inhibitors of the PD-1/PD-L1 and CD80(B7-1)/PD-L1 protein/protein interactions” (BRISTOL-MYERS SQUIBB COMPANY, priority 2014, dated 2020)
*1 amine or outer side, *2 acyl side, *3 side chain or, on linkers, in order; H or OH if unused. Where a SMILES comes first, the peptide text is derived from it. Bridges are numbered along the chain shown (N, C = ends). [ ]: non-standard residue; d: D form. ξ: configuration not given here. X3 = O=C(C[C@@H](CO)C(=O)[*:2])[C@H](Cc1c[nH]c2ccccc12)N[*:1]; X2 = NC(=O)C[C@H](N[*:1])C(=O)C1CCC[C@H]1C(=O)[*:2]; Phe(3,4,5-F3) = N[C@@H](Cc1cc(F)c(F)c(F)c1)C(=O)O; NMePhe(4-Me) = CN[C@@H](Cc1ccc(C)cc1)C(=O)O; NMePhe(4-F) = CN[C@@H](Cc1ccc(F)cc1)C(=O)O; Morpholine(3S-CO) = O=C(O)[C@@H]1COCCN1; Hyp = O=C(O)[C@@H]1C[C@@H](O)CN1; NMeF = CN[C@@H](Cc1ccccc1)C(=O)O; dHyp = O=C(O)[C@H]1C[C@H](O)CN1; NMeNle = CCCC[C@H](NC)C(=O)O; dNle = CCCC[C@@H](N)C(=O)O; dPip = O=C(O)[C@H]1CCCCN1; NMeA = CN[C@@H](C)C(=O)O; Orn = NCCC[C@H](N)C(=O)O; dThz = O=C(O)[C@H]1CSCN1; Dab = NCC[C@H](N)C(=O)O; ξC = NC(CS)C(=O)O

Biological target: T1, Human PD-L1/PD-1 (Homo sapiens, UniProt Q9NZQ7)
T1 construct: TVMV protease cleavage site (C); made in house; host or cells: HEK293T cells
Test: HTRF Human PD-L1/PD-1 binding assay (PD-1-Ig/PD-L1-His)
Settings: PD-L1-His 10 nM, PD-1-Ig 20 nM; class symbol; read-out: HTRF Human PD-L1/PD-1 Binding Assay IC50 Range
Procedure, shortened: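 HTRF read-out (665/620 nm ratio) after 30 min equilibration with Eu-cryptate anti-Ig mAb (1 nM) and APC anti-His mAb (20 nM). Peptides preincubated 15 min with PD-L1-His (10 nM), then PD-1-Ig (20 nM) added for 15 min.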

T1 sequence (Q9NZQ7 with tags, fused parts or gaps): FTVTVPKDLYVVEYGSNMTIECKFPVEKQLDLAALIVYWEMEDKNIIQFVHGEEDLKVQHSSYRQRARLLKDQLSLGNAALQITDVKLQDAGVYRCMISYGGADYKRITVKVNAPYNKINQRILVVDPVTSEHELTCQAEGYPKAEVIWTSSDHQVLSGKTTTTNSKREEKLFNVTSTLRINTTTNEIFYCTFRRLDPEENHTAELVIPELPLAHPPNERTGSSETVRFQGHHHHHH

Question: How did the IC50 turn out when CCCC[C@H]1C(=O)N(C)[C@@H](CCCC)C(=O)N[C@@H](CCC(=O)O)C(=O)N[C@H](C(=O)NCC(N)=O)CSCC(=O)N[C@@H](Cc2ccc(O)cc2)C(=O)N2CCOC[C@H]2C(=O)N[C@@H](CC(=O)O)C(=O)N2CCC[C@H]2C(=O)N[C@@H](Cc2c[nH]cn2)C(=O)N[C@@H](CCC(N)=O)C(=O)N2C[C@H](O)C[C@H]2C(=O)N[C@@H](Cc2c[nH]c3ccccc23)C(=O)N[C@@H](CO)C(=O)N[C@@H](Cc2c[nH]c3ccccc23)C(=O)N1C [Example 1515] ({CH2CO}-Y[Morpholine(3S-CO)]DPHQ[Hyp]WSW[NMeNle][NMeNle]ECG-NH2; thioether N-14) was run?
Answer: 1 to 9.9 nM

Question: CCCC[C@H]1C(=O)N(C)[C@@H](CCCC)C(=O)N[C@@H](CCC(=O)O)C(=O)N[C@H](C(=O)NCC(N)=O)CSCC(=O)N[C@@H](Cc2ccc(OC)cc2)C(=O)N(C)[C@@H](C)C(=O)N[C@@H](CC(=O)O)C(=O)N2CCC[C@H]2C(=O)N[C@@H](Cc2cnc[nH]2)C(=O)N[C@@H](CCC(=O)O)C(=O)N2C[C@H](O)C[C@H]2C(=O)N[C@@H](Cc2c[nH]c3ccccc23)C(=O)N[C@@H](CCN)C(=O)N[C@@H](Cc2c[nH]c3ccccc23)C(=O)N1C [Example 7110] ({CH2CO}-Y(Me)[NMeA]DPHE[Hyp]W[Dab]W[NMeNle][NMeNle]ECG-NH2; thioether N-14) was tested. Which IC50 did it give?
Answer: 1 to 9.9 nM

Question: For CCCC[C@H]1C(=O)N2C[C@@H](O)C[C@@H]2C(=O)N[C@@H](CC(=O)O)C(=O)N[C@@H](C(C)C)C(=O)N(C)[C@@H](Cc2ccc(F)cc2)C(=O)N[C@@H](CCC(=O)O)C(=O)N2CCC[C@@H]2C(=O)N[C@@H](Cc2c[nH]c3ccccc23)C(=O)N[C@@H](Cc2ccc(O)cc2)C(=O)N[C@@H](CC(C)C)C(=O)N[C@H](C(=O)NCC(N)=O)CSCC(=O)N[C@@H](Cc2cc(F)c(F)c(F)c2)C(=O)N(C)[C@@H](Cc2ccccc2)C(=O)N1C [Example 10116] ({CH2CO}-[Phe(3,4,5-F3)][NMeF][NMeNle][dHyp]DV[NMePhe(4-F)]E[dP]WYLCG-NH2; thioether N-13), which IC50 is on record?
Answer: 1 to 9.9 nM

Question: For CCCC[C@H]1C(=O)N2CCC[C@@H]2C(=O)N[C@@H](CC(=O)O)C(=O)N[C@@H](C)C(=O)N(C)[C@@H](Cc2ccccc2)C(=O)N[C@@H](Cc2ccc(O)cc2)C(=O)N2CSC[C@@H]2C(=O)N[C@@H](Cc2c[nH]c3ccccc23)C(=O)N[C@@H](Cc2ccc(O)cc2)C(=O)N[C@@H](CC(C)C)C(=O)N[C@H](C(=O)NCC(N)=O)CSCC(=O)N[C@@H](Cc2ccccc2)C(=O)N(C)[C@@H](Cc2ccccc2)C(=O)N1C [Example 10088] ({CH2CO}-F[NMeF][NMeNle][dP]DA[NMeF]Y[dThz]WYLCG-NH2; thioether N-13), which IC50 is on record?
Answer: 10 to 99.9 nM

Question: CCCC[C@H]1NC(=O)[C@H](Cc2c[nH]c3ccccc23)NC(=O)[C@H](CO)CC(=O)[C@H](Cc2c[nH]c3ccccc23)NC(=O)[C@@H]2C[C@@H](O)CN2C(=O)[C@H](CCC(N)=O)NC(=O)[C@H](Cc2cnc[nH]2)NC(=O)[C@@H]2CCCC2C(=O)[C@H](CC(N)=O)NC(=O)[C@H](C)N(C)C(=O)[C@H](Cc2ccc(O)cc2)NC(=O)CSCC(C(=O)NCC(N)=O)NC(=O)[C@H](CCC(=O)O)NC(=O)[C@H](CCCC)N(C)C1=O (stereo partly shown) [Example 10127] ({CH2CO}-Y[NMeA][X2]HQ[Hyp][X3]W[dNle][NMeNle]E[ξC]G-NH2; thioether N-12) was tested. Which IC50 did it give?
Answer: 1000 to 10000 nM

Question: For CCCC[C@H]1C(=O)N(C)[C@@H](C)C(=O)N[C@@H](CCCNC(=N)N)C(=O)NC(C(=O)NCC(N)=O)CSCC(=O)N[C@@H](Cc2ccc(O)cc2)C(=O)N(C)[C@@H](C)C(=O)N[C@@H](CC(N)=O)C(=O)N2CCC[C@H]2C(=O)N[C@@H](CC(N)=O)C(=O)N[C@@H](CC(C)C)C(=O)N2CCC[C@H]2C(=O)N[C@@H](Cc2c[nH]c3ccccc23)C(=O)N[C@@H](CO)C(=O)N[C@@H](Cc2c[nH]c3ccccc23)C(=O)N1C (stereo partly shown) [Example 9136] ({CH2CO}-Y[NMeA]NPNLPWSW[NMeNle][NMeA]R[ξC]G-NH2; thioether N-14), which IC50 is on record?
Answer: 10 to 99.9 nM

Question: How did the IC50 turn out when CCCC[C@H]1C(=O)N2C[C@@H](O)C[C@@H]2C(=O)N[C@@H](CC(=O)O)C(=O)N[C@@H](C(C)C)C(=O)N(C)[C@@H](Cc2ccc(C)cc2)C(=O)N[C@@H](CCCN)C(=O)N2CCC[C@@H]2C(=O)N[C@@H](Cc2c[nH]c3ccccc23)C(=O)N[C@@H](Cc2ccc(O)cc2)C(=O)N[C@@H](CC(C)C)C(=O)N[C@H](C(=O)NCC(N)=O)CSCC(=O)N[C@@H](Cc2cc(F)c(F)c(F)c2)C(=O)N(C)[C@@H](Cc2ccccc2)C(=O)N1C [Example 10119] ({CH2CO}-[Phe(3,4,5-F3)][NMeF][NMeNle][dHyp]DV[NMePhe(4-Me)][Orn][dP]WYLCG-NH2; thioether N-13) was run?
Answer: 100 to 990 nM

Question: Which IC50 does the source give for CCCC[C@H]1C(=O)N(C)[C@@H](CCCC)C(=O)N[C@@H](CCCN)C(=O)N[C@H](C(=O)NCC(N)=O)CSCC(=O)N[C@@H](Cc2ccc(OC)cc2)C(=O)N(C)[C@@H](C)C(=O)N[C@@H](CC(N)=O)C(=O)N2CCC[C@H]2C(=O)N[C@@H](Cc2cnc[nH]2)C(=O)N[C@@H](CCC(=O)O)C(=O)N2C[C@H](O)C[C@H]2C(=O)N[C@@H](Cc2c[nH]c3ccccc23)C(=O)N[C@@H](CC(=O)O)C(=O)N[C@@H](Cc2c[nH]c3ccccc23)C(=O)N1C [Example 7097] ({CH2CO}-Y(Me)[NMeA]NPHE[Hyp]WDW[NMeNle][NMeNle][Orn]CG-NH2; thioether N-14) here?
Answer: 1 to 9.9 nM

Question: With CCCC[C@H]1C(=O)N2CCC[C@@H]2C(=O)N[C@@H](CC(=O)O)C(=O)N[C@@H](C(C)C)C(=O)N(C)[C@@H](Cc2ccccc2)C(=O)N[C@@H](CC(=O)O)C(=O)N2CCCC[C@@H]2C(=O)N[C@@H](Cc2c[nH]c3ccccc23)C(=O)N[C@@H](Cc2ccc(O)cc2)C(=O)N[C@@H](CO)C(=O)N[C@H](C(=O)NCC(N)=O)CSCC(=O)N[C@@H](Cc2cc(F)c(F)c(F)c2)C(=O)N(C)[C@@H](Cc2ccc(F)cc2)C(=O)N1C [Example 10573] ({CH2CO}-[Phe(3,4,5-F3)][NMePhe(4-F)][NMeNle][dP]DV[NMeF]D[dPip]WYSCG-NH2; thioether N-13) as the compound, how does the IC50 read?
Answer: 1 to 9.9 nM

Question: How did the IC50 turn out when CCCC[C@H]1C(=O)N(C)[C@@H](C)C(=O)N[C@@H](CCCNC(=N)N)C(=O)NC(C(=O)NCC(N)=O)CSCC(=O)N[C@@H](Cc2ccc(O)cc2)C(=O)N(C)[C@@H](C)C(=O)N[C@@H](CC(N)=O)C(=O)N2CCC[C@H]2C(=O)N[C@@H](CC(N)=O)C(=O)N[C@@H](CC(C)C)C(=O)N2C[C@H](O)C[C@H]2C(=O)N[C@@H](Cc2c[nH]c3ccccc23)C(=O)N[C@@H](CO)C(=O)N[C@@H](Cc2c[nH]c3ccccc23)C(=O)N1C (stereo partly shown) [Example 9138] ({CH2CO}-Y[NMeA]NPNL[Hyp]WSW[NMeNle][NMeA]R[ξC]G-NH2; thioether N-14) was run?
Answer: 1 to 9.9 nM
